{
  "source": "patent US9730902B2",
  "about": "“Polyamine transport inhibitors as novel therapeutics” (University of Central Florida Research Foundation, Inc., priority 2009, dated 2017)",
  "key": {"[1]": {"tested_on": "CHO-K1 cells", "assay": "Block of uptake of cytotoxic PAT probe Ant44 (cell rescue)", "format": "cell-based, Chinese hamster", "details": "for PAT inhibition: block of uptake of Ant44 at non-toxic concentrations; for rescue of cells from Ant44: inhibitor at 0.1 uM; for toxicity of inhibitor to cells: inhibitor at 100 uM in the presence of Ant44 (0.5 uM)", "description": "FIG. 6. In CHO-K1 cells, cytotoxic compound Ant44 was dosed at 0.5 μM in the presence of 2 mM aminoguanidine and either Triamide 5c or Trimer 3c at varying concentrations then incubated for 48 hours. […] Note: 5c was able to rescue the CHO cells from Ant44 but required a higher dose of 5c (1 uM). Note: […] Note that all experiments performed contained a maximum of 2 mM aminoguanidine to prevent break-down of polyamine analogues in the serum. This cell culture artifact only arises due to bovine copper-dependent serum amine oxidases which are not present in humans and are therefore not of a concern. […] This is reflective upon their low Ki values observed in L1210 cells (Phanstiel reference).\nFIG. 7. In CHO-K1 cells, the PAT-selective cytotoxic agent Ant44 was dosed at 0.5 μM in the presence of Trimer 3c at varying concentrations (in nM) and incubated for 48 hours. Note that 2 mM aminoguanidine was added to the media to blockade degradation by serum amine oxidases.\nIn this manner, the PTI (e.g. 1 uM) dosed at completely non-toxic concentrations was able to block the uptake of the toxic Ant44 compound (Ant44 dosed at its IC50 value, 0.5 uM). […] These experiments (FIGS. 6 and 7) were done in Chinese hamster ovary cells (CHO-K1) cells."}, "[2]": {"tested_on": "import of putrescine", "assay": "Selectivity of blocking import of native polyamines", "format": "cell-based", "details": "putrescine versus spermidine and spermine, at the dosage used"}, "[3]": {"tested_on": "SW620 cells", "assay": "cells", "details": "for Relative viability: human, 72 h", "description": "The first assay implements the growth of mammalian cells in a 96 well plate format on tissue culture plates.\n1.) The media contains a maximum of 2 mM aminoguanidine and a minimum of 0.25 mM aminoguanidine to prevent a cell culture artifact (i.e., degradation of native polyamines and PTI structures that contain terminal amine structures (e.g., trimer 3c) by bovine serum amine oxidases present in the cell culture media). As a general rule, aminoguanidine (AG) is not dosed at a concentration which induces 20% or more cytostasis in the cell line examined. This minimizes AG side-effects. All of the following treatments are begun 24 hours after seeding the cells.\n3.) The maximum tolerated dose (MTD) of the PTI is determined by titrating it without the presence of DFMO or polyamine. The MTD is defined as the maximum concentration of the drug (e.g., PTI) that is shown to keep 100% of the cell population alive compared to the control ±10%.\n(§1) This is defined as the “MTD under DFMO treatment.”\n6.) The combination of DFMO, polyamine, and PTI are treated concomitantly after 24 hours of growth in a 96-well tissue culture treated plate. The duration of treatment is determined by step 2 for all three reagents. The concentration of DFMO is determined in step 2, the concentration of polyamine is determined in step 4 and the concentration of PTI is determined by step 3, the MTD. Note if the MTD of the PTI is altered by the presence of DFMO then the “MTD under DFMO treatment” is used as determined in step 6. The untreated control cells, DFMO only treatment, and DFMO+polyamine treatment, must be shown on the same plate as the experimental samples with PTI to ensure that these controls are working properly.\nThe first assay measures the ability of the new transport inhibitors to block rescue of DFMO-treated cells by putrescine (a native polyamine)."}, "[4]": {"tested_on": "L3.6pl cells", "assay": "Block of spermidine rescue of DFMO-treated cells", "format": "cell-based, human", "description": "FIG. 3 is a chart showing the block of spermidine rescue by trimer in a does dependent fashion in L3.6pl cells. […] This minimizes AG side-effects. […] The second assay measures the ability of the new transport inhibitor (the trimer 3c) to block rescue of DFMO-treated cells by spermidine. […] As shown below, the L3.6pl cells were dosed with 5 mM DFMO, which reduced their viability during the 48 hour incubation period to 60% of the control growth without DFMO (2nd column). However, these cells were rescued by the addition of exogenous spermidine (0.5 µM, 3rd column). […] However, in the presence of the trimer (i.e., the polyamine transport inhibitor 3c) we were able to block this rescue effect of spermidine (Spd) in a dose-dependent fashion (3c: 0.1 to 5 µM). For example, 3c at 2 µM in the presence of DFMO (5 mM)+spermidine (0.5 µM) gave 60% viability (7th column). Without the presence of the trimer, spermidine rescues the cells and one observes >90% viability (3rd column). The resulting data is in Table 1 and FIG. 3."}, "[5]": {"tested_on": "MiaPaca-2 pancreatic cancer", "assay": "MTD under DFMO treatment", "format": "cell-based", "description": "as §1"}, "[6]": {"tested_on": "L3.6pl metastatic pancreatic cancer", "assay": "Block of putrescine rescue of DFMO-treated cells", "format": "cell-based, human", "description": "The MTD of 3c in this cell line is 5 μM. All treatments (DFMO, putrescine, and 3c) were dosed simultaneously and for a duration of 72 hours.\nThe MTD of 3c in this cell line is 5 μM. All treatments (DFMO, putrescine, and 3c) were dosed simultaneously and for a duration of 48 hours."}, "[7]": {"tested_on": "MiaPaca-2 pancreatic cancer", "assay": "Block of putrescine rescue of DFMO-treated cells", "format": "cell-based, human", "description": "The MTD under DFMO treatment of 3c in this cell line is 1 μM and as such the therapy became toxic at 2 μM. If the therapy is not toxic to normal cells, then this therapy is also valid for concentrations above 1 μM. All treatments (DFMO, putrescine, and 3c) were dosed simultaneously and for a duration of 96 hours."}, "[8]": {"tested_on": "L3.6pl metastatic pancreatic cancer", "assay": "Maximum tolerated dose (MTD) of the PTI", "format": "cell-based", "details": "L3.6pl cell line"}, "[9]": {"tested_on": "RKO", "assay": "Response of cell growth to DFMO", "format": "cell-based"}, "[10]": {"tested_on": "Panc-1", "assay": "Response of cell growth to DFMO", "format": "cell-based"}, "[11]": {"tested_on": "SW480", "assay": "Response of cell growth to DFMO", "format": "cell-based"}, "[12]": {"tested_on": "HCT-116", "assay": "Response of cell growth to DFMO", "format": "cell-based"}},
  "note": "Entries after “also recorded” stand apart in the source; their conditions may differ.",
  "data": [
    {"molecule": "NCCCCNCCCCNC(=O)c1cc(C(=O)NCCCCNCCCCN)cc(C(=O)NCCCCNCCCCN)c1", "note": "[5c, Benzene-1,3,5-tricarboxylic acid tris-{[4-(4-amino-butylamino)-butyl]-amide}]", "values": [
      {"measurement": "dose required to rescue the CHO cells from Ant44", "setting": "[1]; Ant44 0.5 uM, 48 hours", "result": 1, "unit": "µM"},
      {"measurement": "PAT inhibition", "setting": "[1]", "result": "potent PAT inhibitors"},
      {"measurement": "rescue of cells from Ant44", "setting": "[1]; Ant44 0.5 uM, 48 hours", "result": "unable to rescue"},
      {"measurement": "toxicity of inhibitor to cells", "setting": "[1]", "result": "moderate toxicity"},
      {"measurement": "selectivity of blocking import of native polyamines", "setting": "[2]", "result": "selectively blocks import of putrescine; also recorded: specific for putrescine"}
    ]},
    {"molecule": "NCCCCN", "note": "[Putrescine, putrescine, reference compound]", "values": [
      {"measurement": "viability at 1 µM", "setting": "[3]; Homo sapiens, SW-620, 72 h, read-out: Relative viability", "result": 100, "unit": "%"}
    ]},
    {"molecule": "NCCCCNCCCN", "note": "[spermidine, reference compound]", "values": [
      {"measurement": "% Viability", "setting": "[4]; 5 mM DFMO + 0.5 uM Spd, no trimer, 48 hour", "result": "> 90", "unit": "%"},
      {"measurement": "% Viability", "setting": "[4]; 5 mM DFMO + 0.5 uM Spd, no trimer, 48 hour, listed as Spd", "result": 91, "unit": "%"}
    ]},
    {"molecule": "NCCCCNCCCCNCc1cc(CNCCCCNCCCCN)cc(CNCCCCNCCCCN)c1", "note": "[3c, N-(4-Amino-butyl)-N′-(3,5-bis-{[4-(4-amino-butylamino)-butylamino]-methyl}-benzyl)-butane-1,4-diamine]", "values": [
      {"measurement": "Relative viability", "setting": "[3]; 0.1 uM", "result": 100, "unit": "%"},
      {"measurement": "Relative viability", "setting": "[3]; 0.5 uM", "result": 75, "unit": "%"},
      {"measurement": "MTD under DFMO treatment", "setting": "[5]; MiaPaca-2, 96 hours", "result": 1, "unit": "µM"},
      {"measurement": "concentration at which the therapy became toxic", "setting": "[5]; MiaPaca-2, with DFMO, 96 hours", "result": 2000, "unit": "nM"},
      {"measurement": "% Viability", "setting": "[4]; 5 mM DFMO + 0.5 uM Spd + trimer 0.1, 48 hour", "result": 90, "unit": "%"},
      {"measurement": "% Viability", "setting": "[4]; 5 mM DFMO + 0.5 uM Spd + trimer 0.5, 48 hour", "result": 88, "unit": "%"},
      {"measurement": "% Viability", "setting": "[4]; 5 mM DFMO + 0.5 uM Spd + trimer 1, 48 hour", "result": 73, "unit": "%"},
      {"measurement": "% Viability", "setting": "[4]; 5 mM DFMO + 0.5 uM Spd + trimer 2, 48 hour", "result": 60, "unit": "%"},
      {"measurement": "% Viability", "setting": "[4]; 5 mM DFMO + 0.5 uM Spd + trimer 3, 48 hour", "result": 53, "unit": "%"},
      {"measurement": "% Viability", "setting": "[4]; 5 mM DFMO + 0.5 uM Spd + trimer 5, 48 hour", "result": 45, "unit": "%"},
      {"measurement": "concentration from which treatment is effective", "setting": "[6]; competing with 0.5 μM of putrescine, 48 hours", "result": 0.5, "unit": "µM"},
      {"measurement": "concentration from which treatment is effective", "setting": "[6]; competing with 1 μM of putrescine, 72 hours", "result": 1, "unit": "µM"},
      {"measurement": "concentration able to protect CHO-K1 cells from Ant44", "setting": "[1]; Ant44 0.5 uM, 2 mM aminoguanidine, 48 hours, further titration", "result": 80, "unit": "nM"},
      {"measurement": "PAT inhibition", "setting": "[1]", "result": "potent PAT inhibitors"},
      {"measurement": "rescue of cells from Ant44", "setting": "[1]; Ant44 0.5 uM, 48 hours", "result": "complete rescue"},
      {"measurement": "toxicity of inhibitor to cells", "setting": "[1]", "result": "moderate toxicity"},
      {"measurement": "treatment effect", "setting": "[7]; 0.5 μM of 3c, 0.5 μM of putrescine, DFMO, 96 hours", "result": "incomplete but effective treatment"},
      {"measurement": "concentration from which treatment is effective", "setting": "[7]; competing with 0.5 μM of putrescine, with DFMO, 96 hours", "result": 1, "unit": "µM"},
      {"measurement": "MTD", "setting": "[8]", "result": 5, "unit": "µM"}
    ]},
    {"molecule": "difluoromethylornithine [DFMO]", "values": [
      {"measurement": "reduction in growth", "setting": "[3]; DFMO (1 mM), MTS assay", "result": 50, "unit": "%"},
      {"measurement": "response to DFMO", "setting": "[9]", "result": "respond to DFMO in a time dependent matter"},
      {"measurement": "response to DFMO", "setting": "[10]", "result": "respond to DFMO in a time dependent matter"},
      {"measurement": "DFMO reduction in cell growth", "setting": "[7]; 48, 72 and 96 hours", "result": "time dependent"},
      {"measurement": "response to DFMO", "setting": "[11]", "result": "respond to DFMO in a time dependent matter"},
      {"measurement": "response to DFMO", "setting": "[12]", "result": "respond to DFMO in a time dependent matter"}
    ]},
    {"molecule": "NCCCCNCCCCNCc1c2ccccc2cc2ccccc12", "note": "[Ant44, anthracen-9-ylmethyl-homospermidine conjugate, reference compound]", "values": [
      {"measurement": "viability relative to untreated CHO-K1 cells", "setting": "[1]; Ant44 0.5 uM without PAT inhibitor, 2 mM aminoguanidine, 48 hours", "result": 40, "unit": "%"},
      {"measurement": "IC50", "setting": "[1]; cytotoxicity of Ant44, CHO-K1", "result": 500, "unit": "nM"}
    ]}
  ]
}
